Columns and labels:
[1] = test system: npba expression in Vs/Vp and PMm/PMg; set-up: method as in Kikuchi et al., 2019; conditions: adult males treated with estrogen; ref Kikuchi et al., 2019; cited from earlier work
[2] = test system: npba expression in Vs/Vp and PMm/PMg; conditions: estrogen replacement, ref Hiraki et al., 2014; cited from earlier work
From the text: We determined whether the sexual phenotype of npba expression can be reversed from the female to the male pattern, and vice versa, by altering the adult sex steroid milieu. […] Here, we first tested whether npba expression in these brain nuclei can be induced in males by castration and sex steroid supplementation.

[3] = test system: ER expression in Vs/Vp and PMm/PMg; conditions: males treated with estrogen; ref Hiraki et al., 2012; cited from earlier work
From the text: Importantly, our results provide insight into the mechanisms underlying the reversal of sexually dimorphic npba expression. […] Considering these findings, it seems plausible that this estrogen-induced npba expression is not fully realized until sufficient ER expression is achieved.

Cckar expression = conditions: ref Xu et al., 2012, cited from earlier work
From the text: Another distinctive aspect of npba expression is the bidirectional reversibility of sexual dimorphism (both from female-typical to male-typical pattern and from male-typical to female-typical pattern). […] In mice, for example, the cholecystokinin receptor gene (Cckar) implicated in female sexual receptivity is expressed in the ventr ...

[4] = test system: npba expression in Vs/Vp and PMm/PMg; test: npba expression in brain nuclei of gonad-intact medaka after immersion drug treatment (in situ hybridization); assay type: in vivo, medaka (Oryzias latipes); conditions: ovary-intact adult females, n = 5
From the text: (§1) DNA fragments of 645 bp, 647 bp, and 1520 bp corresponding to nucleotides 1–645 of the medaka npba cDNA (GenBank accession number NM_001308979), 1–647 of the medaka npbb EST clone of National BioResource Project (NBRP) Medaka (http://www.shigen.nig.ac.jp/medaka/) (clone ID: olova57o22), and 1699–3218 of the medaka npbwr2 cDNA (deposited in DDBJ/EMBL/GenBank with accession number LC375958), respectively, were PCR-amplified and subcloned into the pGEM-Teasy vector (Promega, Madison, WI). The resultant constructs were used to generate digoxigenin (DIG)-labeled cRNA probes for npba, npbb, and npbwr2 by using the DIG RNA Labeling Mix and T7 RNA polymerase (Roche Diagnostics). The procedure for in situ hybridization has been described previously ([Hiraki et al., 2012]). In brief, the brain, pituitary, and/or spinal cord were fixed in 4% paraformaldehyde (PFA), embedded in paraffin, and cut into 10 μm sections in the coronal plane. Hybridization signals were visualized by using alkaline phosphatase-conjugated anti-DIG antibody (Roche Diagnostics) and 5-bromo-4-chloro-3-indolyl phosphate/nitro blue tetrazolium (BCIP/NBT) substrate (Roche Diagnostics). Color development was allowed to proceed overnight or was stopped after 2–3 hr (for quantification of npba expression in Vs/Vp) or 15–30 min (for quantification of npba expression in PMm/PMg) to avoid saturation. All sections in each comparison were processed simultaneously under the same conditions.
(§2) To obtain quantitative data, the number of npba/npbb-expressing neurons in each brain nucleus or each brain/spinal cord region was counted manually. In some analyses, the resulting sections were photographed and converted to black and white binary images by thresholding using Adobe Photoshop (Adobe Systems, San Jose, CA), and the total area of npba/npbb expression was calculated by using ImageJ (http://rsbweb.nih.gov/ij/). The threshold was set manually by visual inspection of the images to successfully separate specific signals from background noise. Brain nuclei were identified by using medaka brain atlases ([Anken and Bourrat, 1998]; [Ishikawa et al., 1999]); http://www.shigen.nig.ac.jp/medaka/medaka_atlas/), supplemented with information from our Nissl-stained sections ([Kawabata et al., 2012]).
(§3) In another experiment, females with intact ovaries were treated with 100 ng/ml of KT or AI (Fadrozole; Sigma-Aldrich, St. Louis, MO) by immersion in water for 9 days. […] These fish were sampled on days 0 (untreated controls), 2, 5, and 9. The sex steroid concentration used was based on previously reported serum steroid levels in medaka ([Foran et al., 2002]; [Foran et al., 2004]; [Tilton et al., 2003]).

[5] = test system: estradiol-17β (E2) in the brain; test: Brain levels of E2 in KT-treated females (LC-MS/MS); assay type: in vivo, medaka (Oryzias latipes); conditions: females treated with 100 ng/ml KT by immersion; within 2 days, low during remainder of treatment; n = 4 per sampling day; p<0.0001 on days 2, 5, and 9
Procedure: as §3
Dissected whole brains were frozen and stored at −80°C until analysis. Levels of E2 in the brains were analyzed by liquid chromatography coupled to tandem mass spectrometry (LC-MS/MS) at Aska Pharmamedical (Kanagawa, Japan).

[6] = test system: npbb expression in Vs/Vp and PMm/PMg/PPp; test: npbb expression in brain nuclei of gonadectomized medaka after sex steroid supplementation (in situ hybridization); assay type: in vivo, medaka (Oryzias latipes); conditions: n = 5
From the text: DNA fragments of 645 bp, 647 bp, and 1520 bp corresponding to nucleotides 1–645 of the medaka npba cDNA (GenBank accession number NM_001308979), 1–647 of the medaka npbb EST clone of National BioResource Project (NBRP) Medaka (http://www.shigen.nig.ac.jp/medaka/) (clone ID: olova57o22), and 1699–3218 of the medaka npbwr2 cDNA (deposited in DDBJ/EMBL/GenBank with accession number LC375958), respectively, were PCR-amplified and subcloned into the pGEM-Teasy vector (Promega, Madison, WI). The resultant constructs were used to generate digoxigenin (DIG)-labeled cRNA probes for npba, npbb, and npbwr2 by using the DIG RNA Labeling Mix and T7 RNA polymerase (Roche Diagnostics). […] Color development was allowed to proceed overnight or was stopped after 2–3 hr (for quantification of npba expression in Vs/Vp) or 15–30 min (for quantification of npba expression in PMm/PMg) to avoid saturation. […]
To obtain quantitative data, the number of npba/npbb-expressing neurons in each brain nucleus or each brain/spinal cord region was counted manually. In some analyses, the resulting sections were photographed and converted to black and white binary images by thresholding using Adobe Photoshop (Adobe Systems, San Jose, CA), and the total area of npba/npbb expression was calculated by using ImageJ (http://rsbweb.nih.gov/ij/). […]

[7] = test system: npbb expression in Vs/Vp and PMm/PMg/PPp; test: npbb expression in brain nuclei of gonad-intact medaka after immersion drug treatment (in situ hybridization); assay type: in vivo, medaka (Oryzias latipes); conditions: n = 5
From the text: as §1, §2, §3

[8] = test system: npba expression in the whole brain; test: npba expression in whole brain of ovariectomized ΔERE mutant females treated with E2 (real-time PCR); assay type: in vivo, medaka (Oryzias latipes); conditions: OVX + 100 ng/ml E2, 6 days, n = 6 per group

estrogen
emergence of Npba-expressing neurons in adult males [1]: emerged in adult males treated with estrogen | npba expression in Vs/Vp and PMm/PMg of ovariectomized females [2]: restored by estrogen replacement | ER expression in Vs/Vp and PMm/PMg of males [3]: induces ER expression | Cckar expression in ventromedial nucleus of the hypothalamus, males (Cckar expression; adult males treated with estrogen): does not induce expression of Cckar | Cckar expression in ventromedial nucleus of the hypothalamus, females (Cckar expression; ovariectomized adult females treated with estrogen): reinstated by treatment with estrogen

C[C@]12CC(=O)[C@H]3[C@@H](CCC4=CC(=O)CC[C@@]43C)[C@@H]1CC[C@@H]2O [KT, 11-ketotestosterone]
number of npba-expressing neurons in PMm/PMg ([4]; 100 ng/ml KT by immersion, 9 days): unchanged | total area of npba expression in Vs/Vp ([4]; 100 ng/ml KT by immersion, 9 days, p=0.0002 on day 2, p<0.0001 on days 5 and 9): undetectable or nearly undetectable levels | number of npba-expressing neurons in Vs/Vp ([4]; 100 ng/ml KT by immersion, days 0, 2, 5, 9, p<0.0001 on days 5 and 9 versus day 0): undetectable or nearly undetectable levels | total area of npba expression in PMm/PMg ([4]; 100 ng/ml KT by immersion, p=0.0068 on day 9): significant decline | brain E2 levels, percent of untreated controls [5]: less than 5% | npbb expression in Vs/Vp and PMm/PMg/PPp after ovariectomy (restoration) ([6]; ovariectomized adult females, 100 ng/ml KT, 6 days): not by KT | npbb expression in PMm/PMg/PPp ([7]; ovary-intact adult females, 100 ng/ml KT by immersion, number of neurons p=0.0038 on day 9, total area p=0.0021 and <0.0001 on days 5 and 9): significant decrease | number of npbb-expressing neurons in Vs/Vp ([7]; ovary-intact adult females, 100 ng/ml KT by immersion, p<0.0001 on days 5 and 9): undetectable or nearly undetectable levels | total area of npbb expression in Vs/Vp ([7]; ovary-intact adult females, 100 ng/ml KT by immersion, p=0.0235, <0.0001, <0.0001 on days 2, 5, and 9): undetectable or nearly undetectable levels

N#Cc1ccc(C2CCCc3cncn32)cc1 (stereo not drawn) [AI, Fadrozole]
number of npba-expressing neurons in Vs/Vp (compared with KT treatment) ([4]; 100 ng/ml AI by immersion, p<0.0001 on days 2, 5, and 9): essentially the same results | total area of npba expression in Vs/Vp (compared with KT treatment) ([4]; 100 ng/ml AI by immersion, p=0.0063 and 0.0025 on days 5 and 9): essentially the same results | total area of npba expression in PMm/PMg (compared with KT treatment) ([4]; 100 ng/ml AI by immersion, p=0.0108 on day 9): essentially the same results | npbb expression in PMm/PMg/PPp (significant decrease) ([7]; ovary-intact adult females, 100 ng/ml AI by immersion, 9 days): not AI treatment | number of npbb-expressing neurons in Vs/Vp ([7]; ovary-intact adult females, 100 ng/ml AI by immersion, p=0.0002 and <0.0001 on days 5 and 9): undetectable or nearly undetectable levels | total area of npbb expression in Vs/Vp ([7]; ovary-intact adult females, 100 ng/ml AI by immersion, p=0.0013 and 0.0009 on days 5 and 9): undetectable or nearly undetectable levels

C[C@]12CC[C@@H]3c4ccc(O)cc4CC[C@H]3[C@@H]1CC[C@@H]2O [E2, estradiol-17β]
npba expression in the whole brain, mutant versus wild-type females ([8]; p=0.0023): not able to restore npba expression to the level present in wild-type females | npba expression in the whole brain after ovariectomy and E2 treatment ([8]; ΔERE mutant females): restored by E2 treatment | npbb-expressing neurons in Vs/Vp of castrated males ([6]; castrated adult males, 100 ng/ml E2, 6 days, p<0.0001): induced a few npbb-expressing neurons in Vs/Vp | npbb-expressing neurons in Vs/Vp ([7]; testis-intact adult males, 100 ng/ml E2 by immersion, p=0.0369): a few npbb-expressing neurons were newly induced in Vs/Vp
